Test results: ChEMBL document CHEMBL5584351
Activity calls are given as the source filed them. The rule behind the calls is not given here.

Experiments:
[1] = molecular target: T1, Oxysterols receptor LXR-alpha (Homo sapiens, UniProt Q13133); test: Agonist activity at GST tagged LXRalpha (unknown origin) using SRC1 as coactivator peptide incubated for 1 hr by coactivator recruitment based TR-FRET assay
T1 sequence (Q13133 whole entry): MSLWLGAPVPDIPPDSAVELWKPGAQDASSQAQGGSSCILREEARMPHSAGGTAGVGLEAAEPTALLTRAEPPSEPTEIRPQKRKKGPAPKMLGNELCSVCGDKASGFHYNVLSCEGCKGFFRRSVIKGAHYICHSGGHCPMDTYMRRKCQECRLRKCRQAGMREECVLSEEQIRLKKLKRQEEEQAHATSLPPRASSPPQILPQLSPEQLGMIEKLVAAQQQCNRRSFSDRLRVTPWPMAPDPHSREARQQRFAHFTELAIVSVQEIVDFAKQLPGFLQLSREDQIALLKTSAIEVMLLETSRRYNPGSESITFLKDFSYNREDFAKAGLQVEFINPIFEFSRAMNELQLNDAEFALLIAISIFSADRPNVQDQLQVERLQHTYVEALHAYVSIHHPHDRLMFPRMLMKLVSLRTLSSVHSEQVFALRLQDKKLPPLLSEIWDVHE

[2] = molecular target: T2, Oxysterols receptor LXR-beta (Homo sapiens, UniProt P55055); test: Agonist activity at GST tagged LXRbeta (unknown origin) using SRC1 as coactivator peptide incubated for 1 hr by coactivator recruitment based TR-FRET assay
T2 sequence (P55055 whole entry): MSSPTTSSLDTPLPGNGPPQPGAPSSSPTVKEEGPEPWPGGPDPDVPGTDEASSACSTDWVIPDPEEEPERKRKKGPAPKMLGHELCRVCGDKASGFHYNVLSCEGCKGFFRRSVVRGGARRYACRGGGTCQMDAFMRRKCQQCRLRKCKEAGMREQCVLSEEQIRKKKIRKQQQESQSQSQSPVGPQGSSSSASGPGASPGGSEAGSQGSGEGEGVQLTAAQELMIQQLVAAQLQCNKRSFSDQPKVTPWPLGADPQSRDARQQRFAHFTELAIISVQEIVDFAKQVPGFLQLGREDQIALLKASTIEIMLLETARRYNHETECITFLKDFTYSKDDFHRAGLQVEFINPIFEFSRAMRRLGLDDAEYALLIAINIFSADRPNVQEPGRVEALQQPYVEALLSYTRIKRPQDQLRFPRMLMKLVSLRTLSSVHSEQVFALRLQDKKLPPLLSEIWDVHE

[3] = test system: HepG2; test: Agonist activity at LXR in human HepG2 cells assessed as upregulation of SREBF1 mRNA expression at 10 uM incubated for 24 hrs by qPCR analysis; format: cell-based; settings: filed as agonist
[4] = molecular target: Phospholipid-transporting ATPase ABCA1 (Mus musculus) (UniProt P41233); test: Activation of ABCA1 in mouse J774.2 cells assessed as increase in fluorescent-tagged cholesterol efflux at 1 uM incubated for 24 hrs by BODIPY based fluorescence analysis; format: cell-based; settings: filed as activator
Phospholipid-transporting ATPase ABCA1 (Mus musculus), sequence (P41233 whole entry, the tested form may be a part): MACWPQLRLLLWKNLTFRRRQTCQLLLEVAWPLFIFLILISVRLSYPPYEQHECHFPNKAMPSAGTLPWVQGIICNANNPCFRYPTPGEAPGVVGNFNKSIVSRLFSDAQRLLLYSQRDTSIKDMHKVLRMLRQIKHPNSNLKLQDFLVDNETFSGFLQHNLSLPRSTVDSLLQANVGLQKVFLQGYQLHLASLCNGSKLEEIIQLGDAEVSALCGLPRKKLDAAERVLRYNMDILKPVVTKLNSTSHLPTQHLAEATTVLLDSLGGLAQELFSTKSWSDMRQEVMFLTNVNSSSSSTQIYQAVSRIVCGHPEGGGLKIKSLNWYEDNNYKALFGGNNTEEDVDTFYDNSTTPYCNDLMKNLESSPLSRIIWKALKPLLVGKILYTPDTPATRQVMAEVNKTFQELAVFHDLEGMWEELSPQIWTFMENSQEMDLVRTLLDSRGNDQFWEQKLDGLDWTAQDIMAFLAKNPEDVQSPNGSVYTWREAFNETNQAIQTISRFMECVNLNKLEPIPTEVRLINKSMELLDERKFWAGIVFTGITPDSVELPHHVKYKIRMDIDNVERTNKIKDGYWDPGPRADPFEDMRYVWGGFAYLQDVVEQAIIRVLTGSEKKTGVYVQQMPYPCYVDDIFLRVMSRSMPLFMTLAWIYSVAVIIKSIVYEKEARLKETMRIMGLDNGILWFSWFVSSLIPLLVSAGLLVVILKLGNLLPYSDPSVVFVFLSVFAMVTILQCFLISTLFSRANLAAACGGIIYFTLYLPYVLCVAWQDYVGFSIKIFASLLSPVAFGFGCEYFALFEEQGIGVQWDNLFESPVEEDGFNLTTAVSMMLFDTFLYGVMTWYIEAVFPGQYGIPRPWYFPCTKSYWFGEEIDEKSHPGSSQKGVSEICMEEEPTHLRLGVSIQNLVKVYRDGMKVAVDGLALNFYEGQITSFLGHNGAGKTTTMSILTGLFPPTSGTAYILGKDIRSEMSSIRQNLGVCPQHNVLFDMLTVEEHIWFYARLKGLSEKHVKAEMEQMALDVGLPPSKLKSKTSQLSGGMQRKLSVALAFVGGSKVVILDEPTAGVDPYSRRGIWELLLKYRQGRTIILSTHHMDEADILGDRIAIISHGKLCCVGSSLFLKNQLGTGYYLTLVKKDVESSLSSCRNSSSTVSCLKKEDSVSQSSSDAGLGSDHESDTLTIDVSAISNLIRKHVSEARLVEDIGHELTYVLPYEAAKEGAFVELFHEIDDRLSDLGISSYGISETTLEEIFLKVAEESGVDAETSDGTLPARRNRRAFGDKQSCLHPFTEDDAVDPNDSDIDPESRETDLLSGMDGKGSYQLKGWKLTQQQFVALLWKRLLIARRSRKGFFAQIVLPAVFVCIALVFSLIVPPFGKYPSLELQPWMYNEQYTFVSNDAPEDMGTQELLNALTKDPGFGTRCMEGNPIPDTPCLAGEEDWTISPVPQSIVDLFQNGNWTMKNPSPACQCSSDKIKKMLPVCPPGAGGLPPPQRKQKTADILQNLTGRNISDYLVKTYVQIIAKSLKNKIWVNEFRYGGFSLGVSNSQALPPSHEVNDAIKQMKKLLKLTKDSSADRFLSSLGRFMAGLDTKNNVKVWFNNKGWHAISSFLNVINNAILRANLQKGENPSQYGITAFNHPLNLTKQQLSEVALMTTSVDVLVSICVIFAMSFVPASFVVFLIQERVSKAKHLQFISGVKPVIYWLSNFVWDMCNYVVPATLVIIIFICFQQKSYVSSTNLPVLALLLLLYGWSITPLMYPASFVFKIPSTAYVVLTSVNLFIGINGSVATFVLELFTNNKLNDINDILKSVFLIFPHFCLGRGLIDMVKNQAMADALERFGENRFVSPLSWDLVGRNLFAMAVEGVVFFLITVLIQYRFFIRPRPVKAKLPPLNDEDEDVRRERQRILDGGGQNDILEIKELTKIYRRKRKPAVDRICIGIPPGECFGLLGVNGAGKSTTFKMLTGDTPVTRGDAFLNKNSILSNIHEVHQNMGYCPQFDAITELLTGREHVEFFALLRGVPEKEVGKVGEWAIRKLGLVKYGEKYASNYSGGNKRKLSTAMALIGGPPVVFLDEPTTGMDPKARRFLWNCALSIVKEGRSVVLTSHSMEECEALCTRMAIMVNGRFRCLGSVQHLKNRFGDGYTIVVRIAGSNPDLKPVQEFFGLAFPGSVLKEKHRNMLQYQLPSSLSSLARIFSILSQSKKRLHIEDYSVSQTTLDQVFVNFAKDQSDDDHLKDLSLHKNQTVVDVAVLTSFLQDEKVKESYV

[5] = molecular target: T3, Bile acid receptor (Homo sapiens) (UniProt Q96RI1); test: Agonist activity at FXR LBD (unknown origin) transfected in HEK293T cells by measuring maximal efficacy incubated for 16 hrs by Gal4-reporter gene based luciferase assay; format: cell-based
T3 sequence (whole entry): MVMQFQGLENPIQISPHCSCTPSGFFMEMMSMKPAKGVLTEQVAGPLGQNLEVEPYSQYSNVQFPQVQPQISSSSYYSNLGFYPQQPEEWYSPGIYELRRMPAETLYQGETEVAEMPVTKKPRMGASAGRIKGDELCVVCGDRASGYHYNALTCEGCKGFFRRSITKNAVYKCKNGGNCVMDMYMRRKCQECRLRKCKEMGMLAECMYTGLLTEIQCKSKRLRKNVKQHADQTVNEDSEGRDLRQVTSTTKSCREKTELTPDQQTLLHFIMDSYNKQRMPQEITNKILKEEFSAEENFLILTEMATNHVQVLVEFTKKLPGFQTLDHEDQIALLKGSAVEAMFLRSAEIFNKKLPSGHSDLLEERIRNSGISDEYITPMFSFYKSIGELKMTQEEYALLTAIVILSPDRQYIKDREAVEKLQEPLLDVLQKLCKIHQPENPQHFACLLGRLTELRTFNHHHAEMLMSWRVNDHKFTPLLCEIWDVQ

[6] = Toxicity in wild type C57BL/6 mouse assessed as change in ABCA1 protein expression in brain at 10 mg/kg,po administrated for 7 days by immunoblotting analysis; format: organism-based; settings: in vivo, 168 h, time 7 day
[7] = molecular target: Phospholipid-transporting ATPase ABCA1 (Homo sapiens, UniProt O95477); test: Activation of ABCA1 (unknown origin)
Phospholipid-transporting ATPase ABCA1, sequence (O95477 whole entry): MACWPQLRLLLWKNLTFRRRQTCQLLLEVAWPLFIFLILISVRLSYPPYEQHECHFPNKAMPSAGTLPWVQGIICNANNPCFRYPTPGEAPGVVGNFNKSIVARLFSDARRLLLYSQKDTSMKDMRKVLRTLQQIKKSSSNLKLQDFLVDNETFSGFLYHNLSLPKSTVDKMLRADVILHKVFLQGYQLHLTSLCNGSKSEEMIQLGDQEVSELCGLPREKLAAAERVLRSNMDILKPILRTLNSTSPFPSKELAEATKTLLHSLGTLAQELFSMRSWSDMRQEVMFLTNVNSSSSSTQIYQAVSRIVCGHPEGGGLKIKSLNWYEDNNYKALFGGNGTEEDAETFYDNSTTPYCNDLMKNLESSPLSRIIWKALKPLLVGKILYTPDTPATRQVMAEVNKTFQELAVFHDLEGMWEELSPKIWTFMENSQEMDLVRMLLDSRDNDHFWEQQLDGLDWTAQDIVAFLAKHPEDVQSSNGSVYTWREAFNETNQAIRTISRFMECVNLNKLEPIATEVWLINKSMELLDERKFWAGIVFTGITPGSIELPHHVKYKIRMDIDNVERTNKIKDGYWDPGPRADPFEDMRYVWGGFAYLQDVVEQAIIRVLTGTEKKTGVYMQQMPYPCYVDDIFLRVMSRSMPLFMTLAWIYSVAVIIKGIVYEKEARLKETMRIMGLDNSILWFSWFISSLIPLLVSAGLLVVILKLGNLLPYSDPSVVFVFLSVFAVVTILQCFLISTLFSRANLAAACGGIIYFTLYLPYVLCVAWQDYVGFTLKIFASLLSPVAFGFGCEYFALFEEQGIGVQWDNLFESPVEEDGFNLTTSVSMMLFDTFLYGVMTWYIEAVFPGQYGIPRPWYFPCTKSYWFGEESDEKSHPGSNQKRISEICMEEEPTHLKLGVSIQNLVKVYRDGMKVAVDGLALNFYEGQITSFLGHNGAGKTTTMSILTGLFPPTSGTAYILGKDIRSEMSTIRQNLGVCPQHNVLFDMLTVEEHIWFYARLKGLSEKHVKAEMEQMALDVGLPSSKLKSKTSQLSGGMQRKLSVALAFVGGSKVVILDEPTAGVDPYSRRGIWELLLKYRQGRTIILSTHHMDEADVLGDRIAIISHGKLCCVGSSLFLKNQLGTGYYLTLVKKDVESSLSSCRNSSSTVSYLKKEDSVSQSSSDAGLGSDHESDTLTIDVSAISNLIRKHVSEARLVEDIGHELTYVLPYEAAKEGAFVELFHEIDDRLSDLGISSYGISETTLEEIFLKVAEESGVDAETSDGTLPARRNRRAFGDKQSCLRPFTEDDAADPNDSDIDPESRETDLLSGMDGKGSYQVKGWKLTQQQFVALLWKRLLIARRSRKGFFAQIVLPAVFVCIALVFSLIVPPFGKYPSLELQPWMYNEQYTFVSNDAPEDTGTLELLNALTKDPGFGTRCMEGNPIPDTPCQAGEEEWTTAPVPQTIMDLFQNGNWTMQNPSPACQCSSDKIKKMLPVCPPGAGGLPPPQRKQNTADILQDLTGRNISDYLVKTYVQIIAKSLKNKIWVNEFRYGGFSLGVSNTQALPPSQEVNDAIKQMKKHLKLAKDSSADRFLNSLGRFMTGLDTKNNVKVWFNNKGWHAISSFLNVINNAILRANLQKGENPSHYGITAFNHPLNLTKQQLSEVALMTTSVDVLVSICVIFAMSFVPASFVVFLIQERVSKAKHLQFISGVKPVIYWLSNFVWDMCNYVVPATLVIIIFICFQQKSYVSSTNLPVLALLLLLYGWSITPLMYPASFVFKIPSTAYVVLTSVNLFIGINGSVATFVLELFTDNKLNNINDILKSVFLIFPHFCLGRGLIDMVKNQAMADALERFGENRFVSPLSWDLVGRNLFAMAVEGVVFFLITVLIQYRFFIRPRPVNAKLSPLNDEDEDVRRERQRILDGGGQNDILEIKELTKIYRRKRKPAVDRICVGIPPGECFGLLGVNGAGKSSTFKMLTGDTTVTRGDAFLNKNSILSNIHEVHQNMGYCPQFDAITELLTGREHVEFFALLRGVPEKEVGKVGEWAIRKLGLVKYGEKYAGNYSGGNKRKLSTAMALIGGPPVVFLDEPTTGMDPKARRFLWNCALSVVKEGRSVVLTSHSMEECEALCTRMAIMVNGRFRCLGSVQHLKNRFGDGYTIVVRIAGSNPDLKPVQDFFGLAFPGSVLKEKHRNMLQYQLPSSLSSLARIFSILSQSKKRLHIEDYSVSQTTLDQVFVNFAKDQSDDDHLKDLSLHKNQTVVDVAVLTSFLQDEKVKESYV

| EC50 [1] [µM] | EC50 [2] [µM] | Compound | other results |
| --- | --- | --- | --- |
| 11 | – | CCOC(=O)c1cccc(NC(=O)c2sc(Cl)cc2S(=O)(=O)N(C)c2ccc(N(C)C)cc2)c1 | – |
| 1 | – | CCOc1ccc(N(C)S(=O)(=O)c2cc(Cl)sc2C(=O)Nc2cc(Cl)cc(C(=O)OCCOCCOC)c2)cc1OC | – |
| – | 11 | CCCOc1ccc(N(C)S(=O)(=O)c2ccsc2C(=O)Nc2cccc(C(=O)OCC)c2)cc1 | – |
| – | 15 | CCOc1ccc(N(C)S(=O)(=O)c2cc(Cl)sc2C(=O)Nc2cccc(C(=O)OCCOC)c2)cc1OCC | – |
| 15 | 13 | CCOc1ccc(N(C)S(=O)(=O)c2cc(Cl)sc2C(=O)Nc2cc(Cl)cc(C3OCCO3)c2)cc1OC | – |
| 3.5 | 4.5 | CCOC(=O)c1cccc(NC(=O)c2sccc2S(=O)(=O)N(C)c2ccc(OCC)c(OCC)c2)c1 | – |
| – | – | O=S(=O)(c1ccccc1)N(CC(F)(F)F)c1ccc(C(O)(C(F)(F)F)C(F)(F)F)cc1 | Activity [3]: Active; Activity [4]: Active; Emax [5]: 35% |
| > 25 | – | CCOc1ccc(N(C)S(=O)(=O)c2cc(Cl)sc2C(=O)Nc2cccc(C(=O)OCCOCCOC)c2)cc1OCC | – |
| – | – | O=C(O)Cc1cccc(OCCCN(Cc2cccc(C(F)(F)F)c2Cl)CC(c2ccccc2)c2ccccc2)c1 | Activity [6]: Toxic |
| 0.95 | – | CCOC(=O)c1cccc(NC(=O)c2sc(Cl)cc2S(=O)(=O)N(C)c2ccc(OCC)c(OC)c2)c1 | – |
| – | – | CN(CC(=O)Nc1ccc(F)c(F)c1F)C(=O)c1ccc2c(c1)OCCO2 | EC50 [7]: > 1 µM |
| – | > 25 | CCOc1ccc(N(C)S(=O)(=O)c2ccsc2C(=O)Nc2cccc(C(=O)OC)c2)cc1 | – |
| > 25 | – | CCOC(=O)c1cccc(-c2nnc(-c3sc(Cl)cc3S(=O)(=O)N(C)c3ccc(OCC)c(OC)c3)o2)c1 | – |
| – | 0.58 | CCOc1ccc(N(C)S(=O)(=O)c2cc(Cl)sc2C(=O)Nc2cc(Cl)cc(C(=O)OCCOC)c2)cc1OC | – |
| 4.8 | 13 | CCOC(=O)c1cccc(NC(=O)c2sc(Cl)cc2S(=O)(=O)N(C)c2ccc(OCC)cc2)c1 | – |
